Laboratory results from publication PMC11233548 (Communications Biology, 2024).
No end group written: not given here. long linker = not defined here

Columns and labels:
H-RasG12V nanoclustering [1] = experiment: H-RasG12V nanoclustering-BRET in HEK cells; assay type: cell-based, human; settings: expression (48 h), donor:acceptor 1:5, n = 3
H-RasG12V nanoclustering [2] = experiment: Electron microscopy-based analysis of H-RasG12V nanoclustering in BHK cells; assay type: cell-based, baby hamster kidney (BHK) cells; settings: membrane sheets of Gal1-expressing BHK cells; n = 15
From the text: To quantify the nanoclustering of a component integral to the plasma membrane (PM), the apical PM sheets of baby hamster kidney (BHK) cells expressing a GFP-tagged H-Ras construct were fixed with 4% (w/v) PFA and 0.1% (w/v) glutaraldehyde. GFP anchored to the PM sheets was probed with 4.5 nm gold particles pre-coupled to anti-GFP antibody. Following embedment with methyl cellulose, the PM sheets were imaged using transmission electron microscopy (JEOL JEM-1400). Using the coordinates of every gold particle, Ripley’s K-function calculated the extent of nanoclustering of gold particles within a selected 1 μm^2 PM area: K(r)=An^−2∑i≠jwij1(∥xi−xj∥≤r) Lr−r=Kr/π−r where n gold particles populate in an intact area of A; r is the length between 1 and 240 nm; || ^. || indicates Euclidean distance where 1(^.) = 1 if ||xi − xj|| ≤ r and 1(^.) = 0 if ||xi − xj|| > r; K(r) specifies the univariate K-function. wij^−1 is a parameter used for an unbiased edge correction and characterizes the proportion of the circumference of a circle that has the center at xi and radius ||xi-xj||. Monte Carlo simulations estimate the 99% confidence interval (99% C.I.), which is then used to linearly transform K(r) into L(r) − r. On a nanoclustering curve of L(r) − r vs. r, the peak L(r) − r value is used as summary statistics for nanoclustering and is termed as Lmax. […]

Gal1 = experiment: SNAP-tag mediated pull-down from HEK lysates, Gal1; assay type: binding, human cell line HEK293-EBNA; settings: lysates of Gal1-transfected HEK cells
Protocol: (§1) For the pull-down of interactors of L5UR-SNAP and control constructs, HEK293 EBNA cells were plated on 10 cm dishes. For each dish, 5 µg of pDest305-CMV-hGal1 and pEF-L5UR-SNAP, pEF-mutL5UR-SNAP, or pEF-SNAP were transfected. Transfection was done at ≥70% confluency using 2 µL jetPRIME per 1 µg DNA transfected, according to the manufacturer’s instructions. After about 24 h, the growth medium was removed, cells were rinsed twice in cold PBS, and each dish was lysed in 1 mL lysis buffer, consisting of 20 mM HEPES pH 7.5, 4 mM β-mercaptoethanol, 0.05% Igepal, 1× Protease Inhibitor (Thermo Scientific, #A32955) and 1× PhosSTOP (Roche, #04 906 837 001). The cells were scraped and transferred to Eppendorf tubes, then incubated on ice for 30 min, with occasional mixing by inverting the tube. The lysate was cleared by centrifugation for 15 min at 4 °C and 16,363 rcf. Cleared lysate was transferred to a clean tube, 15 µL sample was withdrawn as “Input” for Western blot analysis, and 25 µL of SNAP-capture magnetic beads (New England Biolabs, #S9145S) suspension (diluted 1:1 in lysis buffer) was added. The samples were further incubated for 2 h at room temperature (20–25 °C) on a rotating wheel. […] The samples were resolved on 4–20% SDS-PAGE gels in Tris-Gly buffer and analyzed by Western blotting. […]

B-Raf = experiment: SNAP-tag mediated pull-down from HEK lysates, B-Raf; assay type: binding, human cell line HEK293-EBNA; settings: lysates of Gal1-transfected HEK cells; n = 4
Protocol: as §1

Gal1/B-RBD = Gal1/B-RBD (Homo sapiens, UniProt P15056); experiment: Gal1/B-RBD BRET in HEK cells; assay type: cell-based; settings: expression (48 h), donor:acceptor 1:10; HEK; n = 3
C-Raf = experiment: SNAP-tag mediated pull-down from HEK lysates, C-Raf; assay type: binding, human cell line HEK293-EBNA; settings: lysates of Gal1-transfected HEK cells; n = 4
Protocol: as §1

RASSF7 = experiment: SNAP-tag mediated pull-down from HEK lysates, RASSF7; assay type: binding, human cell line HEK293-EBNA; settings: lysates of Gal1-transfected HEK cells; n = 4
Protocol: as §1

[3] = tested on: catalytic subunit of PI3Kα; experiment: SNAP-tag mediated pull-down from HEK lysates, PI3Kα catalytic subunit; assay type: binding, human cell line HEK293-EBNA; settings: lysates of Gal1-transfected HEK cells; n = 4
Protocol: as §1

ASPP2 = experiment: SNAP-tag mediated pull-down from HEK lysates, ASPP2; assay type: binding, human cell line HEK293-EBNA; settings: lysates of Gal1-transfected HEK cells; n = 4
Protocol: as §1

Sequence of Gal1/B-RBD (P15056 155-227): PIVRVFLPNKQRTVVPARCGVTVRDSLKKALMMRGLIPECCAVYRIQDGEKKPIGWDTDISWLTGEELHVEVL

L5UR-SNAP: genetic construct with SNAP-tag added via a long linker to the C-terminus of L5UR (LLRPTAASQSRALGPGAPGGSSRSSLRSRWGRFLLQRGSWTGPRCWPRGFQS-{long linker-SNAP‑tag}; reading uncertain)
reduction of H-RasG12V nanoclustering-BRET (H-RasG12V nanoclustering [1]; co-transfection of 200 ng Gal1 plasmid, Fig. 3c): ~ 33%
effect of construct expression on H-RasG12V nanoclustering-BRET (H-RasG12V nanoclustering [1]; with co-transfection of 200 ng Gal1 plasmid): decreased Gal1-enhanced H-RasG12V nanoclustering-BRET to a similar extent as the untagged L5UR
disruption of H-RasG12V nanoclustering (Lmax) (H-RasG12V nanoclustering [2]): The disruption of H-RasG12V nanoclustering specifically by L5UR-SNAP
pull-down of Gal1 (Gal1): does under those conditions not interact with Gal1
pull-down of B-Raf (B-Raf): pulled down
effect of construct expression on Gal1/B-RBD BRET (Gal1/B-RBD): dose-dependently decreased BRET between Gal1 and the B-RBD
pull-down of C-Raf (C-Raf): pulled down
pull-down of RASSF7 (RASSF7): as were its two RA-domain containing interaction partners, RASSF7 and RASSF9
pull-down of catalytic subunit of PI3Kα [3]: pulled down
pull-down of ASPP2 (ASPP2): it was pulled down by L5UR-SNAP
